Laboratory results from patent publication US8785682B2, “Tetranor PGDM: a biomarker of PGD2 synthesis in vivo” (The Trustees of the University of Pennsylvania, priority 2007, dated 2014).
Where two headings read alike, the source gives them in different places.

How the values were obtained:
[1] = Infusion of exogenous PGD2 i.p. into mice, urinary PGD2 metabolites; type: in vivo, mouse
Experimental: (§1) Urine analysis: ^18O2-2,3-dinor-11β-PGF2α, and ^18O^2-11β-PGF2α were added to 1 milliliter (ml) of human urine or […] of mouse urine and were allowed to equilibrate for 15 minutes. […] The resulting residue was then reconstituted with 100 μl of 5% acetonitrile in water and was filtered by centrifugation.
(§2) The ESI source used nitrogen for both sheath and auxiliary gas and was set at 70 and 5 (arbitrary units), respectively. The mass spectrometer was operated in the negative ion mode with a capillary temperature of 350° C. and a spray voltage of 2.0 kV. […] The transitions for endogenous 2,3-dinor-11β-PGF2α and ^18O2-2,3-dinor-11β-PGF2α, were m/z 325→145 and m/z 329→145 with CE 13 eV, respectively. They were m/z […] and m/z 357→197 for 9α,11β-PGF2α and ^18O2-9α,11β-PGF2α with CE 24 eV.
Studies in mice: All studies were performed following protocol review and approval by the Institutional Animal Care and Use Committee (IAUCC) of the University of Pennsylvania. (i) Infusion studies: vehicle or PGD2 [20, 150 or 500 μg] was infused i.p. into twelve-week-old male C57/BL6 mice (n=5 per group). Urine was collected for 24 hours in metabolic cages for analysis of PGD2 metabolites. (ii) PGDS knockouts: Urine was collected for 24 hours from three- to four-month-old male wild type mice, L-PGDS knockout mice (kindly provided by Dr. Yoshihiro Urade, Osaka, Japan) and H-PGDS knockout mice (kindly provided by Dr. Yoshihide Kanaoka, Boston, Mass.), all on a C57/BL6 background (n=15 for WT and LPGDS knockouts and n=10 for H-PGDS knockouts).
(§3) Results are expressed as mean+/−SEM.

biosynthesis of PGD2 [2] = assay: Aspirin single dose in healthy volunteers, urinary PGD2 metabolites; type: in vivo, human; settings: mean±SEM
Experimental: as §1, §2
(§4) Clinical Studies: Four clinical studies were performed.
In a fourth study, a single dose of aspirin (325 mg) was administered to healthy volunteers (n=18; 9 males and 9 females). Urinary PGD2 metabolites were assessed at time 0 in spot urines and 0-4 hours in urine collected from 0-4 hrs after dosing.
as §3

PGD2 levels = assay: Urinary tetranor PGDM in patients undergoing PTCA; type: in vivo, human; settings: for Level of tetranor-PGDM, Post-PTCA, no aspirin / Level of tetranor-PGDM, Pre-PTCA, no aspirin / Level of tetranor-PGDM, During-PTCA, no aspirin: patient (n=1) on clopidogrel and no aspirin
Text: PGD2 levels were studied in patients undergoing percutaneous transluminal coronary angioplasty (PTCA). PTCA is a common non-surgical treatment for opening obstructed coronary arteries. During PTCA, a balloon-tipped catheter is threaded from an artery in the groin to the trouble spot in the artery of the heart. The balloon is then inflated, thereby compressing the plaque and opening (dilating) the narrowed coronary artery so that blood flow is improved. In some instances, an expandable metal stent is also inserted; stents are wire mesh tubes used to counteract further constriction. The inclusion and exclusion criteria for participation in the PGD2 level assessment were as follows. Inclusion: • a. Males and females between the ages of 18-99. • b. […] Treated with any dose of aspirin (acetylsalicylic acid; ASA) daily for at least 5 days OR • 2. […] Treated with an alternative antiplatelet therapy, such as clopidogrel, due to an aspirin hypersensitivity or PMDs preference OR • 4. […] No aspirin therapy at all. • c. Patients presenting to the emergency room (ER) with Acute Coronary Syndrome (ACS) who will have a PTCA. • d. Patients with stable angina or positive stress tests scheduled for a cardiac catheterization. Exclusion: • a. History of unstable diabetes (Hgb A1c>8 or FBS>200). • b. Uncontrolled hypertension (SBP>180, DBP>100). • c. History of an acute confounding disease as judged on clinical screen that according to the investigator may interfere with interpretation of the study results, or compromise the safety of a potential subject. • d. […] Nineteen (19) subjects scheduled for elective PTCA and/or who presented to the emergency room with acute coronary syndrome and subsequently ordered a PTCA were screened according to the inclusion and exclusion criteria. […] Urine was collected from each subject at three times. […] Urine samples were kept at −80° C. The tetranor PDGM level in each sample was then determined by stable isotope dilution, tandem mass spectrometric quantification, following thawing of the sample. The tetranor PGDM level was normalized to the quantity in milligrams (mg) of urine creatinine.

[3] = Experimental: (§5) In a second study, niacin (dose was 400 mg or 600 mg) was administered to two healthy male volunteers. Urinary PGD2 metabolites were assessed in spot urines collected at the following time points before (time 0) and after (1, 2, 3, 4, 5, 6 hours) niacin administration.
biosynthesis of PGD2 [4] = system: biosynthesis of PGD2
Experimental: as §5

biosynthesis of PGD2 [5] = assay: Rofecoxib single dose in healthy volunteers, urinary PGD2 metabolites; type: in vivo, human; settings: rofecoxib 25 mg single dose, 0 vs 4 hours
Experimental: as §1, §2, §4
In a third study, 18 healthy volunteers (9 male and 9 female) received, in random order, a single dose of placebo or rofecoxib (25 mg) under double-blind conditions, separated by washout periods of at least 2 weeks. Urinary PGD2 metabolites were assessed at 0 and 4 hours in spot urine samples that were collected 30 minutes after voiding.
as §3

[6] = mice, 20, 150 or 500 μg PGD2 i.p.
[7] = mice, maximal dose 500 ug PGD2 i.p., 24 h urine, mean±SEM
[8] = time 0, before aspirin 325 mg single dose
[9] = niacin 400 mg or 600 mg, spot urines 0-6 hours

For `CCCCC[C@H](O)/C=C/[C@H]1C(=O)C[C@H](O)[C@@H]1C/C=C\CCCC(=O)O` [PGD2, prostaglandin D2], the “fractional conversion of PGD2 to each metabolite” value [1, 6] was “uninfluenced by dose”, the “response of all 3 urinary metabolites to PGD2 infusion” value [1, 6] was “increased dose dependently” and the “infused PGD2 excreted as the tetranor PGDM metabolite in mouse urine” value ([1]; mice, i.p. infusion) was 3-10%. For the same compound, the “urinary 2,3-dinor-11β-PGF2α level attained after PGD2 infusion” value [1, 7] was 809±346 ng/mg creatinine, the “urinary 11β-PGF2α level attained after PGD2 infusion” value [1, 7] was 207±67 ng/mg creatinine and the “urinary tetranor PGDM level attained after PGD2 infusion” value [1, 7] was 2498±792 ng/mg creatinine.
For `CC(=O)Oc1ccccc1C(=O)O` [aspirin, acetylsalicylic acid], the “urinary tetranor PGDM level following aspirin” value (biosynthesis of PGD2 [2]; 0-4 hrs after aspirin 325 mg single dose, p<0.001) was 0.86±0.07 ng/mg creatinine, the “urinary 2,3-dinor-11β-PGF2α level following aspirin” value (biosynthesis of PGD2 [2]; 0-4 hrs after aspirin 325 mg single dose, p<0.01) was 0.32±0.04 ng/mg creatinine and the “urinary 2,3-dinor-11β-PGF2α level before aspirin” value (biosynthesis of PGD2 [2]; [8]) was 0.63±0.11 ng/mg creatinine. For the same compound, the “urinary tetranor PGDM level before aspirin” value (biosynthesis of PGD2 [2]; [8]) was 1.71±0.21 ng/mg creatinine, the “Level of tetranor-PGDM, Post-PTCA, 81 mg aspirin” value (PGD2 levels; patients (n=3) on daily 81 mg aspirin, urine after procedure) was 3.1 ng/mg creatinine and the “Level of tetranor-PGDM, Pre-PTCA, 81 mg aspirin” value (PGD2 levels; patients (n=3) on daily 81 mg aspirin, urine before procedure) was 2.6 ng/mg creatinine. For the same compound, the “Level of tetranor-PGDM, During-PTCA, 81 mg aspirin” value (PGD2 levels; patients (n=3) on daily 81 mg aspirin, urine during procedure) was 1.8 ng/mg creatinine, the “Level of tetranor-PGDM, Post-PTCA, 325 mg aspirin” value (PGD2 levels; patients on daily 325 mg aspirin, urine after procedure) was 3.1 ng/mg creatinine and the “Level of tetranor-PGDM, Pre-PTCA, 325 mg aspirin” value (PGD2 levels; patients on daily 325 mg aspirin, urine before procedure) was 2.9 ng/mg creatinine. For the same compound, the “Level of tetranor-PGDM, During-PTCA, 325 mg aspirin” value (PGD2 levels; patients on daily 325 mg aspirin, urine during procedure) was 2.8 ng/mg creatinine.
For `COC(=O)[C@H](c1ccccc1Cl)N1CCc2sccc2C1` [clopidogrel], the “Level of tetranor-PGDM, Post-PTCA, no aspirin” value (PGD2 levels; urine after procedure) was 13.1 ng/mg creatinine, the “Level of tetranor-PGDM, Pre-PTCA, no aspirin” value (PGD2 levels; urine before procedure) was 11.5 ng/mg creatinine and the “Level of tetranor-PGDM, During-PTCA, no aspirin” value (PGD2 levels; urine during procedure) was 26.3 ng/mg creatinine.
In the case of `O=C(O)c1cccnc1` [niacin], the “time after which flushing had dissipated” value ([3]; niacin 400 mg or 600 mg oral) is reported as 2 to 3 h, the “flushing after oral administration” value ([3]; niacin 400 mg or 600 mg, two volunteers, face and upper part of the body) is reported as “intense flush” and the “relationship between metabolite excretion and the doses of niacin” value (biosynthesis of PGD2 [4]; 400 mg vs 600 mg) is reported as “not apparent”. For the same compound, the “time of fall of urinary metabolites to basal levels after dosing” value (biosynthesis of PGD2 [4]; niacin 400 mg or 600 mg) was 5 to 6 h, the “time of peak of urinary tetranor PGDM and 2,3-dinor-11β-PGF2α after dosing” value (biosynthesis of PGD2 [4]; niacin 400 mg or 600 mg) was 2 to 3 h and the “effect on urinary 2,3-dinor-11β-PGF2α” value (biosynthesis of PGD2 [4]; [9]) was “elevated”. The “effect on urinary tetranor PGDM” value (biosynthesis of PGD2 [4]; [9]) was “elevated”.
For `CS(=O)(=O)c1ccc(C2=C(c3ccccc3)C(=O)OC2)cc1` [rofecoxib], the “effect on urinary 2,3-dinor-11β-PGF2α” value (biosynthesis of PGD2 [5]) was “failed to depress” and the “effect on urinary tetranor PGDM” value (biosynthesis of PGD2 [5]) was “failed to depress”.
For `O=C(O)CCCCC(=O)CC[C@H]1C(=O)C[C@H](O)[C@@H]1CCC(=O)O` [tetranor PGDM, 11,15-dioxo-9α-hydroxy-2,3,4,5-tetranor-prostan-1,20-dioic acid], the “Level of tetranor-PGDM, Post-PTCA, no aspirin” value (PGD2 levels; urine after procedure) was 13.1 ng/mg creatinine, the “Level of tetranor-PGDM, Pre-PTCA, no aspirin” value (PGD2 levels; urine before procedure) was 11.5 ng/mg creatinine and the “Level of tetranor-PGDM, During-PTCA, no aspirin” value (PGD2 levels; urine during procedure) was 26.3 ng/mg creatinine.
